What all share (assay type): biochemical
One experiment addresses T1, PDK-1 (Homo sapiens, UniProt O15530).
T1 sequence (O15530 1-556): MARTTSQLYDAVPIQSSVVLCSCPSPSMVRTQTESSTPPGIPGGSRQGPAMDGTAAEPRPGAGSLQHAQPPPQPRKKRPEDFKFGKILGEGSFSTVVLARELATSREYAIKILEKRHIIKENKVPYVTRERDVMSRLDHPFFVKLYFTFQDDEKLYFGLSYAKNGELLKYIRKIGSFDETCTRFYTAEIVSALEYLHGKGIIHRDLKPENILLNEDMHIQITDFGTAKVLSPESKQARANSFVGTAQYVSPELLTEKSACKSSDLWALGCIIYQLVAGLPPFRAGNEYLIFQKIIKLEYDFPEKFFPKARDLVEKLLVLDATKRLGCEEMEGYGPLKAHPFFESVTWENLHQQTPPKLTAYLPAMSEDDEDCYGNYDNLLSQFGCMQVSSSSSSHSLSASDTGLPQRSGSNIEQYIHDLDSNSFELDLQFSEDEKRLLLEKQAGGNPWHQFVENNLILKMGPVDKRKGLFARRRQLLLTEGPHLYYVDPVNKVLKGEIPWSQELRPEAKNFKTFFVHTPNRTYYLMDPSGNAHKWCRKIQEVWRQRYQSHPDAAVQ
Nature of the experiment: PDK-1 inhibition assay (radioactive-phosphate incorporation). The note with it: 40 μM ATP, 65 μM PDKtide, 25 nM PDK-1, 30° C.

A further experiment deals with AKT-3 (Homo sapiens, UniProt Q9Y243). Nature of the experiment: AKT-3 inhibition assay (standard coupled enzyme assay). As to conditions: 170 μM ATP, 200 μM peptide, 45 nM AKT, 30° C.
Sequence of AKT-3 (Q9Y243 whole entry): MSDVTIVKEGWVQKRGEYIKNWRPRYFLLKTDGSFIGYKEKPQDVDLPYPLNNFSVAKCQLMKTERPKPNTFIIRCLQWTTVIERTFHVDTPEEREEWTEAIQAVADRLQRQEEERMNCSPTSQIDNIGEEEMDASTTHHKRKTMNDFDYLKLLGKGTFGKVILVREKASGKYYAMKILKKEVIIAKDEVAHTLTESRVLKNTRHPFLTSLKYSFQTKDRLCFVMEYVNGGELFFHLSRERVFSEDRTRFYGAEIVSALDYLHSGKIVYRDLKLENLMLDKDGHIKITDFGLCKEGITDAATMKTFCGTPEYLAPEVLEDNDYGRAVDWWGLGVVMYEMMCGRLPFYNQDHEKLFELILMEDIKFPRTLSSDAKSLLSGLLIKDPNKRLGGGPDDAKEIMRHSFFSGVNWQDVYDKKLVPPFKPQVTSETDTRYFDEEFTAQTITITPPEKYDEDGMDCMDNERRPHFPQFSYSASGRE
The next experiment concerns the target PKA (Homo sapiens, UniProt P17612). Kind of experiment: PKA inhibition assay (standard coupled enzyme assay). The note with it: 50 μM ATP, 80 μM Kemptide, 18 nM PKA, 30° C. The method, then: Compounds were screened for their ability to inhibit PKA using a standard coupled enzyme assay (Fox et al., Protein Sci., (1998) 7, 2249). Assays were carried out in a mixture of 100 mM HEPES 7.5, 10 mM MgCl2, 25 mM NaCl, 1 mM DTT and 3% DMSO. Final substrate concentrations in the assay were 50 μM ATP (Sigma Chemicals) and 80 μM peptide (Kemptide, American Peptide, Sunnyvale, Calif.). Assays were carried out at 30° C. and 18 nM PKA. Final concentrations of the components of the coupled enzyme system were 2.5 mM phosphoenolpyruvate, 300 μM NADH, 30 μg/ml pyruvate kinase and 10 μg/ml lactate dehydrogenase.
An assay stock buffer solution was prepared containing all of the reagents listed above, with the exception of ATP, and the test compound of interest. 55 μl of the stock solution was placed in a 96 well plate followed by addition of 2 μl of DMSO stock containing serial dilutions of the test compound (typically starting from a final concentration of 5 μM). The plate was preincubated for 10 minutes at 30° C. and the reaction initiated by addition of 5 μl of ATP (final concentration 50 μM). Initial reaction rates were determined with a Molecular Devices SpectraMax Plus plate reader over a 15 minute time course. IC50 and Ki data were calculated from non-linear regression analysis using the Prism software package (GraphPad Prism version 3.0a for Macintosh, GraphPad Software, San Diego Calif., USA).

Molecules are shown by their SMILES. pKi: −log10 of the molar value. A value given as a limit tells only on which side of the number the result lay.

In general, pKi refers to −log10 of the Ki, conventionally taken in molar units.

Procedure for AKT-3: Assays were carried out in a mixture of 100 mM HEPES 7.5, 10 mM MgCl2, 25 mM NaCl, 1 mM DTT and 3% DMSO. Final substrate concentrations in the assay were 170 μM ATP (Sigma Chemicals) and 200 μM peptide (RPRAATF, American Peptide, Sunnyvale, Calif.). Assays were carried out at 30° C. and 45 nM AKT. Final concentrations of the components of the coupled enzyme system were 2.5 mM phosphoenolpyruvate, 300 μM NADH, 30 μg/ML pyruvate kinase and 10 μg/ml lactate dehydrogenase.
An assay stock buffer solution was prepared containing all of the reagents listed above, with the exception of AKT, DTT, and the test compound of interest. 55 μl of the stock solution was placed in a 96 well plate followed by addition of 2 μl of 1 mM DMSO stock containing the test compound (final compound concentration 30 μM). The plate was pre-incubated for about 10 minutes at 30° C. and the reaction initiated by addition of 10 μl of enzyme (final concentration 45 nM) and 1 mM DTF. Rates of reaction were obtained using a Molecular Devices SpectraMax Plus plate reader over a 15 minute read time at 30° C.

For the compound `CCc1cccc(C(CCN)C(=O)Nc2ccc3[nH]nc(C)c3c2)c1` (centres unmarked) [Compound I-135], the pKi on PDK-1 was below 5.52; at AKT-3 it was above 6.00; on PKA it was above 6.00.

On to `CCNc1ccc(C(=O)Nc2n[nH]c3ccc(NC(=O)C(CCN)c4ccc(Cl)c(Cl)c4)cc23)cc1` (centres unmarked) [Compound I-207], for which the pKi on PDK-1, on AKT-3 and on PKA was above 6.00 in each case.

For `NCCC(C(=O)Nc1ccc2[nH]ncc2c1)c1cccc(Br)c1` (centres unmarked) [Compound I-110], the pKi on PDK-1, on AKT-3 and on PKA was above 6.00 throughout.

In the case of `NCCC(C(=O)Nc1ccc2[nH]nc(NC(=O)c3cccc(OC(F)(F)F)c3)c2c1)c1ccc(Cl)c(Cl)c1` (centres unmarked) [Compound I-204], the pKi on PDK-1 is below 5.52; on AKT-3, above 6.00; at PKA, above 6.00.

Consider `NCCC(C(=O)Nc1ccc2[nH]nc(NC(=O)c3cccc(Oc4ccccc4)c3)c2c1)c1ccc(Cl)c(Cl)c1` (centres unmarked) [Compound I-178], for which the pKi is below 5.52 on PDK-1, above 6.00 on AKT-3 and above 6.00 on PKA.

As for `NCCC(C(=O)Nc1ccc2[nH]ncc2c1)c1cccc(Cl)c1F` (centres unmarked) [Compound I-101], the pKi at PDK-1 is 5.52 to 6.00; on AKT-3, above 6.00; on PKA it was above 6.00.

As for `C=Cc1cccc(C(=O)Nc2n[nH]c3ccc(NC(=O)C(CCN)c4ccc(Cl)c(Cl)c4)cc23)c1` (centres unmarked) [Compound I-196], the figures for the pKi on PDK-1, on AKT-3 and on PKA were below 5.52, above 6.00 and above 6.00, respectively.

`CSc1cccc(C(CCN)C(=O)Nc2ccc3[nH]ncc3c2)c1` (centres unmarked) [Compound I-108]: the pKi at PDK-1 was 5.52 to 6.00; on AKT-3 it was above 6.00; on PKA it was above 6.00.

Turning to `NCCC(C(=O)Nc1ccc2[nH]nc(NC(=O)c3ccncc3)c2c1)c1ccc(Cl)c(Cl)c1` (centres unmarked) [Compound I-193], the pKi at PDK-1, on AKT-3 and on PKA was above 6.00 each time.

In the case of `NCCC(C(=O)Nc1ccc2[nH]nc(NC(=O)c3cccc(Br)c3)c2c1)c1ccc(Cl)c(Cl)c1` (centres unmarked) [Compound I-186], the negative-log Ki (pKi) at PDK-1 is 5.52 to 6.00; on AKT-3, above 6.00; on PKA it was above 6.00.

With `CN(C)CCC(C(=O)Nc1ccc2[nH]ncc2c1)c1ccc(Cl)c(Cl)c1` (centres unmarked) [Compound I-226], the figures for the pKi at PDK-1, at AKT-3 and at PKA were below 5.52, above 6.00 and above 6.00, respectively.

`NCCC(C(=O)Nc1ccc2[nH]ncc2c1)c1cccc(N)c1` (centres unmarked) [Compound I-107]: the negative logarithm of the Ki (pKi) at PDK-1 was 5.52 to 6.00; on AKT-3, 5.00 to 6.00; on PKA, above 6.00.

Consider `Cc1n[nH]c2ccc(NC(=O)[C@@H](CCN)c3ccccc3)cc12` [Compound I-1033], for which the pKi at PDK-1 is below 5.52; at PKA, above 6.00.

In the case of `NCCC(C(=O)Nc1ccc2[nH]nc(NC(=O)c3ccc(Oc4ccccc4)cc3)c2c1)c1ccc(Cl)c(Cl)c1` (centres unmarked) [Compound I-199], the negative-log Ki (pKi) is 5.52 to 6.00 on PDK-1, above 6.00 at AKT-3 and above 6.00 on PKA.

As for `NCCC(C(=O)Nc1ccc2[nH]nc(NC(=O)c3cc(F)cc(C(F)(F)F)c3)c2c1)c1ccc(Cl)c(Cl)c1` (centres unmarked) [Compound I-203], the results for the negative logarithm of the Ki (pKi) on PDK-1, at AKT-3 and on PKA were below 5.52, above 6.00 and above 6.00, respectively.

With `NCCC(C(=O)Nc1ccc2[nH]nc(NC(=O)c3ccc(Br)cc3)c2c1)c1ccc(Cl)c(Cl)c1` (centres unmarked) [Compound I-189], the negative logarithm of the Ki (pKi) at PDK-1, at AKT-3 and at PKA was above 6.00 in each case.

For `NCCC(C(=O)Nc1ccc2[nH]nc(-c3cccc(C(F)(F)F)c3)c2c1)c1ccccc1` (centres unmarked) [Compound I-230], the negative-log Ki (pKi) on PDK-1 and at PKA was above 6.00 each time.

For `NCCC(C(=O)Nc1ccc2[nH]nc(-c3cccc(CN)c3)c2c1)c1ccccc1` (centres unmarked) [Compound I-260], the negative-log Ki (pKi) at PDK-1 and at PKA was above 6.00 in each case.

For `Cc1n[nH]c2ccc(NC(=O)[C@H](CCN)c3ccccc3)cc12` [Compound I-1034], the negative logarithm of the Ki (pKi) at PDK-1 and on PKA was above 6.00 throughout.

With `Cc1n[nH]c2ccc(NC(=O)C(CCN)c3ccccc3F)cc12` (centres unmarked) [Compound I-1026], the negative-log Ki (pKi) on PDK-1 and at PKA was above 6.00 in each case.

As to `Cc1ccc(-c2n[nH]c3ccc(NC(=O)C(CCN)c4ccccc4)cc23)cc1` (centres unmarked) [Compound I-249], the negative-log Ki (pKi) on PDK-1 and on PKA was above 6.00 each time.

Turning to `NCCNC(C(=O)Nc1ccc2[nH]ncc2c1)c1cccc(Cl)c1` (centres unmarked) [Compound I-59, 2-(2-Amino-ethylamino)-2-(3-chloro-phenyl)-N-(1H-indazol-5-yl)-acetamide], the negative logarithm of the Ki (pKi) at AKT-3 and on PKA was above 6.00 each time.

In the case of `O=C(Nc1ccc2[nH]ncc2c1)[C@H](O)c1cccc(Cl)c1` [Compound I-40], the figures for the pKi on AKT-3 and at PKA were 5.00 to 6.00 and above 6.00, respectively.

For `NCCC(C(=O)Nc1ccc2[nH]nc(NC(=O)c3cccc([N+](=O)[O-])c3)c2c1)c1ccc(Cl)c(Cl)c1` (centres unmarked) [Compound I-208], the negative logarithm of the Ki (pKi) at AKT-3 and at PKA was above 6.00 in each case.

Consider `NCCC(C(=O)Nc1cc(Br)c2[nH]ncc2c1)c1ccc(Cl)c(Cl)c1` (centres unmarked) [Compound I-144], for which the pKi on AKT-3 and on PKA was above 6.00 each time.

Regarding `Cc1n[nH]c2ccc(NC(=O)[C@H](O)c3ccc(F)c(Cl)c3)cc12` [Compound I-77], the negative-log Ki (pKi) on AKT-3 was 5.00 to 6.00; on PKA it was above 6.00.

`NCCC(C(=O)Nc1ccc2[nH]nc(-c3ccc(C(=O)O)cc3)c2c1)c1ccccc1` (centres unmarked) [Compound I-237]: the pKi on PDK-1 and at PKA was above 6.00 each time.

Consider `NCCNC(C(=O)Nc1ccc2[nH]ncc2c1)c1ccc2ccccc2c1` (centres unmarked) [Compound I-73], for which the pKi on AKT-3 and at PKA was above 6.00 each time.

As to `NCCC(C(=O)Nc1ccc2[nH]ncc2c1)c1ccc(F)c(C(F)(F)F)c1` (centres unmarked) [Compound I-103], the negative-log Ki (pKi) on AKT-3 and at PKA was above 6.00 each time.

As to `NCCC(C(=O)Nc1ccc2[nH]nc(-c3cccc(F)c3)c2c1)c1ccc(Cl)c(Cl)c1` (centres unmarked) [Compound I-252], the pKi on AKT-3 and at PKA was above 6.00 in each case.

As for `O=C(Cc1cccc(C(F)(F)F)c1)Nc1ccc2[nH]ncc2c1` [Compound I-2], the pKi at AKT-3 is 4.70 to 5.00; on PKA, above 6.00.

As for `NC(C(=O)Nc1ccc2[nH]ncc2c1)c1ccc(F)c(Cl)c1` (centres unmarked) [Compound I-55], the pKi on AKT-3 was 5.00 to 6.00; at PKA, above 6.00.

For `CNc1cccc(C(=O)Nc2n[nH]c3ccc(NC(=O)C(CCN)c4ccc(Cl)c(Cl)c4)cc23)c1` (centres unmarked) [Compound I-209], the negative-log Ki (pKi) on AKT-3 and at PKA was above 6.00 in each case.

With `NCCC(C(=O)Nc1ccc2[nH]nc(-c3ccc(-c4nn[nH]n4)cc3)c2c1)c1ccccc1` (centres unmarked) [Compound I-261], the negative logarithm of the Ki (pKi) on PDK-1 and on PKA was above 6.00 each time.

As for `NCCC(C(=O)Nc1ccc2[nH]ncc2c1)c1cccc(C(F)(F)F)c1` (centres unmarked) [Compound I-104], the negative logarithm of the Ki (pKi) on AKT-3 and on PKA was above 6.00 throughout.

With `NCCC(C(=O)Nc1ccc2[nH]nc(-c3cccc(F)c3)c2c1)c1ccccc1` (centres unmarked) [Compound I-240], the pKi at PDK-1 and on PKA was above 6.00 in each case.

For `NCC[C@H](C(=O)Nc1ccc2[nH]nc(-c3ccc(C(=O)O)cc3)c2c1)c1ccccc1` [Compound I-263], the pKi at PDK-1 and at PKA was above 6.00 in each case.

Values taken from patent US7041687B2, “Indazole compounds useful as protein kinase inhibitors” (Vertex Pharmaceuticals Incorporated, priority 2002, dated 2006).
